# Assay results taken from PubChem BioAssay (NCI).
# “And” between values parts separate entries of the source, which are not always exact repeats. Identical values can stand only once.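 Exposure lasted 48 hours, with cells grown in 96-well plates and compounds tested at five concentrations. Here, GI50 denotes the concentration required for 50% inhibition of growth. TGI: concentration producing complete growth inhibition.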
# Columns and labels:
# Assay in all cases: inhibition of tumour cell growth, NCI panel, 48 h
# HCT-15 colon = system: HCT-15 colon
# HL-60(TB) leukemia = system: HL-60(TB) leukemia
# HT29 colon = system: HT29 colon
# M14 melanoma = system: M14 melanoma
# MDA-N = system: MDA-N
# RPMI-8226 leukemia = system: RPMI-8226 leukemia
# SF-295 CNS = system: SF-295 CNS
# SNB-19 CNS = system: SNB-19 CNS
# SW-620 colon = system: SW-620 colon
# UO-31 renal = system: UO-31 renal
Structure (SMILES),TGI (HCT-15 colon),TGI (HL-60(TB) leukemia) [µM],TGI (HT29 colon),TGI (M14 melanoma),TGI (MDA-N) [µM],TGI (RPMI-8226 leukemia),TGI (SF-295 CNS),TGI (SNB-19 CNS),TGI (SW-620 colon),TGI (UO-31 renal),GI50 (HCT-15 colon) [µM],GI50 (HT29 colon) [µM],GI50 (RPMI-8226 leukemia) [µM],GI50 (SW-620 colon) [µM],GI50 (UO-31 renal) [µM],GI50 (M14 melanoma) [µM],GI50 (SF-295 CNS) [µM],GI50 (SNB-19 CNS) [µM]
COc1cc2c(cc1OC)-c1[nH]c3ccc([N+](=O)[O-])cc3c1CC(=O)N2,> 100 µM,7.31,> 100 µM,> 100 µM,> 100,47.8 µM,> 87.8 µM,> 100 µM,> 100 µM,> 23.8 µM,–,–,–,–,–,–,–,–
COC(=O)CN(CC1O[C@@H]2OC(C)(C)O[C@@H]2C1NC(C)=O)C(=O)OCc1ccccc1 (some centres undefined),> 100 µM,> 100,> 100 µM,> 100 µM,> 100,> 100 µM,> 100 µM,> 100 µM,> 100 µM,> 100 µM,–,–,–,–,–,–,–,–
CCc1n[nH]c(=O)n1N=C(c1ccccc1)c1ccccc1,> 100 µM,> 100,> 100 µM,> 100 µM,> 100,> 100 µM,> 100 µM,> 100 µM,> 100 µM,> 100 µM,–,–,–,–,–,–,–,–
N#CC(C#N)C1CN2CCC1CC2 (centres undefined),> 100 µM,> 100,> 100 µM,> 100 µM,> 100,> 100 µM,> 100 µM,> 100 µM,> 100 µM,> 100 µM,–,–,–,–,–,–,–,–
NC(CS)C(=O)NCCNc1ccc(NCCNC(=O)C(N)CS)c2c1C(=O)c1c(O)ccc(O)c1C2=O (centres undefined),0.864 µM and 0.584 µM,0.0414,1.08 µM and 0.689 µM,1.28 µM and 1.1 µM,1.68,0.744 µM and 0.0804 µM,0.276 µM and 0.0386 µM,1.11 µM and 1.21 µM,1.24 µM and 1.01 µM,0.477 µM and 0.316 µM,0.0384,0.0454,0.0152,0.0218,0.0598,–,–,–
CC1(C)OC2[C@@H](CO[C@@]3([C@H]4OC(C)(C)O[C@@H]4CO)OC(C)(C)O[C@@H]23)O1 (some centres undefined),> 100 µM,> 100,> 100 µM,> 100 µM,> 100,> 100 µM,> 100 µM,> 100 µM,> 100 µM,> 100 µM,–,–,–,–,–,–,–,–
CCN(CCN(CC)C(=O)NC)C(=O)NC,> 100 µM,> 100,> 100 µM,> 100 µM,> 100,> 100 µM,> 100 µM,> 100 µM,> 100 µM,> 100 µM,–,–,–,–,–,–,–,–
COc1cc(/C=C/C2=NN(c3cccc(S(=O)(=O)O)c3)C3(C2)SCC(=O)N3c2nc3ccccc3s2)cc(OC)c1OC (centres undefined),> 100 µM,> 100,> 100 µM,> 100 µM,> 100,48.9 µM,–,> 100 µM,> 100 µM,> 100 µM,–,–,–,–,–,–,–,–
CCOC(=O)C(NC(=O)c1ccccc1)(Nc1ccc(S(=O)(=O)Nc2ccc(OC)nn2)cc1)C(F)(F)F (centres undefined),> 100 µM,> 100,> 100 µM,> 100 µM,> 100,> 100 µM,> 100 µM,> 100 µM,> 100 µM,> 100 µM,–,–,–,–,–,–,–,–
O=C1C(c2c(O)[nH]c3ccc(I)cc23)=Nc2ccccc21,> 100 µM,> 100,> 100 µM,> 100 µM,> 100,> 100 µM,> 64.4 µM,42.8 µM,> 56.7 µM,14.4 µM,–,–,–,–,–,–,–,–
Clc1ccc(Nc2nnc(CNc3ccc(-c4nnc(Nc5ccc(Cl)cc5)o4)cc3)o2)cc1,35.4 µM,> 100,33.1 µM,43.2 µM,44.5,> 100 µM,38.4 µM,46 µM,51.2 µM,35.2 µM,–,–,–,–,–,–,–,–
CN(C)CCCN=c1c2ccccc2n(C)c2[nH]c(=O)n(C)c(=O)c12,> 100 µM,6.47,39.2 µM,17.1 µM,16.2,> 54.4 µM,32.5 µM,> 64.4 µM,28.1 µM,27.2 µM,–,–,–,–,–,–,–,–
COC(=O)C1=C(C)NC2=C(C(=O)c3ccccc32)C1c1cn[nH]c1-c1ccccc1 (centres undefined),> 100 µM,> 100,> 100 µM,> 100 µM,> 100,> 100 µM,> 100 µM,> 100 µM,> 100 µM,> 100 µM,–,–,–,–,–,–,–,–
O=C(c1cccnc1)N1N=C(c2ccc3c(c2)OCO3)CC1(O)c1cc(F)c(Cl)cc1Cl (centres undefined),42.5 µM,52.2,35.9 µM,> 100 µM,> 100,> 100 µM,59.4 µM,> 100 µM,84.5 µM,41.3 µM,–,–,–,–,–,–,–,–
COc1ccccc1[C@@H]1CCC2CC[C@@H](c3ccccc3OC)[N+]21Cc1ccccc1 (some centres undefined),15.2 µM,4.88,10.1 µM,12 µM,12.6,1.47 µM,8.57 µM,16.5 µM,22.5 µM,10.6 µM,–,–,–,–,–,–,–,–
CCOC(=O)[C@@]12NN=N[C@@H]1[C@H]1CO[C@H](c3ccccc3)N1C2=O,32.9 µM,> 100,32.4 µM,33 µM,25.7,8.71 µM,27.5 µM,25 µM,25.5 µM,–,–,–,–,–,–,–,–,–
COc1cc(C2c3cc4c(cc3OC(NNc3ccccc3)C2C)OCO4)cc(OC)c1O (centres undefined),11.9 µM,5.18,16.7 µM,13.3 µM,2.75,9.78 µM,11.3 µM,32.5 µM,21 µM,13.3 µM,–,–,–,–,–,–,–,–

Structure (SMILES),TGI (HCT-15 colon),TGI (HL-60(TB) leukemia) [µM],TGI (HT29 colon),TGI (M14 melanoma),TGI (MDA-N) [µM],TGI (RPMI-8226 leukemia),TGI (SF-295 CNS),TGI (SNB-19 CNS),TGI (SW-620 colon),TGI (UO-31 renal),GI50 (HCT-15 colon) [µM],GI50 (HT29 colon) [µM],GI50 (RPMI-8226 leukemia) [µM],GI50 (SW-620 colon) [µM],GI50 (UO-31 renal) [µM],GI50 (M14 melanoma) [µM],GI50 (SF-295 CNS) [µM],GI50 (SNB-19 CNS) [µM]
CC1=C(C(=O)NCCCN(CCO)CCO)CC(C(=O)NCCCN(CCO)CCO)=C(C)N1,> 100 µM,> 100,> 100 µM,> 100 µM,> 100,> 100 µM,> 100 µM,> 100 µM,> 100 µM,> 100 µM,–,–,–,–,–,–,–,–
Nc1nc(N)c2nc(CNc3ccc(C(=O)NC(CCNC(=O)c4ccccc4C(=O)O)C(=O)O)cc3)cnc2n1 (centres undefined),> 100 µM,> 100,> 100 µM,> 100 µM,> 100,> 100 µM,> 100 µM,> 100 µM,> 100 µM,> 100 µM,0.0072,–,0.0343,0.00628,0.04,0.0737,–,–
COc1ccc(N2C(=O)C(=O)C3(CCCCC3)C2=O)c(OC)c1OC,> 100 µM,> 100,> 100 µM,> 100 µM,> 100,> 100 µM,> 100 µM,> 100 µM,> 100 µM,> 100 µM,–,–,–,–,–,–,–,–
Cc1csc2c(=O)n(COCc3ccccc3)c(=O)[nH]c12,–,> 100,> 100 µM,> 100 µM,> 100,> 100 µM,> 100 µM,> 100 µM,> 100 µM,> 100 µM,–,–,–,–,–,–,–,–
O=C1C=CC(=O)[C@H]2C3C=CC(C4C3C3(Cl)C(Cl)=C(Cl)[C@]4(Cl)C3(Cl)Cl)[C@@H]12 (some centres undefined),16.6 µM,4.63,12.2 µM,16 µM,15.8,23 µM,25.2 µM,17 µM,23.2 µM,22.1 µM,–,–,–,–,–,–,–,–
O=C1c2c(F)c(F)c(F)c(F)c2SC2=Nc3cccc4cccc(c34)N12,14.8 µM,> 20,21.4 µM,13.1 µM,16.7,8.02 µM,30.9 µM,21.1 µM,12 µM,21.7 µM,–,–,–,–,–,–,–,–
O=C(NCCCc1cn[nH]c(=O)n1)c1cccc2nc3ccccc3nc12,> 100 µM,> 100,> 100 µM,> 100 µM,> 100,> 100 µM,> 100 µM,> 100 µM,> 100 µM,–,–,–,–,–,–,–,–,–
O=C(CBr)NCCc1c[nH]c2ccccc12,4.36 µM,3.69,3.51 µM,3.24 µM,4.44,4.31 µM,28.6 µM,20 µM,7.71 µM,3.2 µM,–,–,–,–,–,–,–,–
COc1ccc2nc3c([N+](=O)[O-])ccc(NCCCN(C)C)c3c(N)c2c1,2.62 µM,5.86,2.31 µM,3.61 µM,3.47,1.84 µM,2.95 µM,4.23 µM,1.71 µM,3.71 µM,–,–,–,–,–,–,–,–
O=c1cc(NNc2cccc(F)c2)[nH]c(=S)[nH]1,> 100 µM,> 100,> 100 µM,> 100 µM,> 100,> 100 µM,> 100 µM,> 100 µM,> 100 µM,> 100 µM,–,–,–,–,–,–,–,–
CCOC(=O)c1cc([N+](=O)[O-])cc([N+](=O)[O-])c1Sc1ncnc2nc[nH]c12,19.7 µM,4.33,15.3 µM,2.66 µM,5.28,> 21.8 µM,38.1 µM,43 µM,> 100 µM,3.55 µM,–,–,–,–,–,–,–,–
Cc1cc2nc(CC(C(F)(F)F)C(F)(F)F)oc2cc1C,26.8 µM,12.5,7.91 µM,4.72 µM,5.85,1.61 µM,18.6 µM,17.5 µM,2.83 µM,26.2 µM,–,–,–,–,–,–,–,–
COc1cc(O)c2c(=O)c(OC)c(-c3ccc(OC)c(OC)c3)oc2c1.[Sn],–,> 100,> 100 µM,> 100 µM,> 100,> 100 µM,> 100 µM,> 100 µM,> 100 µM,> 100 µM,–,> 100,–,–,–,> 100,17.4,> 100
CP(=O)(O)C(N)c1ccccc1 (centres undefined),> 100 µM,> 100,> 100 µM,> 100 µM,> 100,> 100 µM,> 100 µM,> 100 µM,> 100 µM,> 100 µM,–,–,–,–,–,–,–,–
O=C1c2ccccc2C(=O)c2c(NCC3CO3)cccc21 (centres undefined),32 µM,15.8,> 86 µM,27.6 µM,23.7,> 85 µM,> 100 µM,> 100 µM,12.7 µM,22.5 µM,–,–,–,–,–,–,–,–
NCCN(CCN)/[N+]([O-])=N/O,> 100 µM,> 100,> 100 µM,> 100 µM,> 100,> 100 µM,> 100 µM,> 100 µM,> 100 µM,> 100 µM,–,–,–,–,–,–,–,–
